Assay results reported in patent US9029381B2, “Cyclopropyl amide derivatives” (Astrazeneca AB, priority 2007, dated 2015).

Tests used:
[1] = target: human histamine H3 receptors (Homo sapiens (Human), UniProt Q9Y5N1); test: Histamine H3 SPA with the agonist radioligand [3H]-N-α-methylhistamine (hH3 binding); conditions: inhibition of [3H]-N-α-methylhistamine (1.4 nM) binding to CHO-K1 membranes expressing full-length human H3 (isoform 445)
Procedure: Histamine H3 SPA with the Agonist Radioligand [^3H]-N-α-Methylhistamine
The H3 binding assay was/can be used to evaluate the ability of at least one compound in accordance with formula I, Ia, Ib, and/or Ic to inhibit [^3H]-N-α-methylhistamine binding to CHO-K1 membranes expressing human histamine H3 receptors (full-length H3, the most prevalent brain isoform 445). In 200 μl 96-well SPA format, human H3 membranes (12.5 μg protein/well) and 1.4 nM [^3H]-N-α-methylhistamine were/can be incubated with at least one compound in accordance with formula I, Ia, Ib, and/or Ic for 1.5 hrs to determine percent effect with respect to total (1% DMSO) and non-specific binding (10 μM imetit). […] Single poke (SP) testing can be done in triplicate.
Membranes, prepared from CHO-K1 cells stably expressing the human histamine H3 receptor, can be obtained from ACS.
Tested formula I, Ia, Ib, and/or Ic compounds were/can be provided as solubilized samples in neat DMSO. Serial dilutions were/can be performed in DMSO.
Plates were/can be 96-well Unifilter GF/B (Perkin Elmer, 6005177). Plates were/can be read on a Perkin Elmer TopCount. CPM data was/can be used to analyze unless DPM data generated by a quench curve was/is required.
• 1. 1 mg/ml BSA was/can be added to assay buffer (AB) on day of assay. • 2. Amounts required for bead/membrane pool in AB were/can be calculated: “P”−need 17.1 ml/assay plate+10 ml PlateMate excess. Buffer volume was/can be split between beads and membranes to allow for polytroning of membranes prior to addition to beads. • a. […] A minimum of 15 minutes was/can be waited prior to adding membranes (See b. below). • b. Membranes (hH3 membranes from CHO cells containing recombinant human H3 receptors, 11.7 mg/ml): membranes were/can be removed from −80° C. and thawed in RT waterbath. (0.0702 mg/ml×P) mg of membranes were/can be resuspended in the remaining volume not used with beads above for 12.5 μg/well final and homogenized briefly at polytron speed 5.0. The homogenized membrane mixture was/can be combined with the beads and a minimum of 30 minutes was/can be waited prior to dispensing to plate. • 3. Formula I, Ia, Ib, and/or Ic compounds: For Single Poke, 2 μl mM of a compound in accordance with formula I, Ia, Ib, and/or Ic was/can be dispensed to Optiplates (triplicate plates) for final a concentration of 10 μM. […] Imetit (see below) was/can be used as a control. • 4. […] [^3H]-N-α-methylhistamine ([^3H]-NAMH): A solution in AB at 14 nM, 10× final concentration of 1.4 nM was/can be prepared. 5 μl samples were/can be calculated in quadruplicate on the 13 counter. If concentration was/is 12-14.5 nM, no adjustment was/is may be required. (For IC50s, use final concentration on calculation tab of ABase template.) Assay • 1. […] 2 μl of the formula I, Ia, Ib, and/or Ic compound dilution was/can be mixed and then transferred into assay plates. DMSO was/can be removed and 2 μl of 100 μM Imetit was/can be added to the wells. • 3. 178 μl bead/membrane mixture was/can be dispensed into the assay plate. • 4. 20 μl [^3H]-NAMH was/can be added with Rapid Plate. The assay plate was/can be sealed and incubated for 1.5 hr on RT shaker at speed ˜6.5. • 5. The assay plate was/can be subsequently centrifuged at 1000 rpm for 10 minutes. • 6. The count was/can be performed on TopCount using one of the 3H SPA H3 Quench programs.
The DPM data was/can be analyzed when tSIS was/is less than that associated with 70% of full scale on the quench curve (tSIS<25%). Otherwise, CPM data was/is used.
(§1) The IC50 and nH can be determined by fitting the data to model 205 in XLfit: y=A+((B−A)/(1+((C/x)^D)). Guanosine 5′-O-(3-[^35S]thio)triphosphate [GTPγS] Binding Assay

[2] = target: human Histamine H3 receptor (hH3R) (Homo sapiens (Human), UniProt Q9Y5N1); test: Guanosine 5'-O-(3-[35S]thio)triphosphate [GTPγS] binding assay; assay type: biochemical; conditions: antagonist mode vs (R)-α-methyl histamine 30 nM; membranes from CHO cells expressing hH3R
Chain of human Histamine H3 receptor (hH3R) (Q9Y5N1 whole entry): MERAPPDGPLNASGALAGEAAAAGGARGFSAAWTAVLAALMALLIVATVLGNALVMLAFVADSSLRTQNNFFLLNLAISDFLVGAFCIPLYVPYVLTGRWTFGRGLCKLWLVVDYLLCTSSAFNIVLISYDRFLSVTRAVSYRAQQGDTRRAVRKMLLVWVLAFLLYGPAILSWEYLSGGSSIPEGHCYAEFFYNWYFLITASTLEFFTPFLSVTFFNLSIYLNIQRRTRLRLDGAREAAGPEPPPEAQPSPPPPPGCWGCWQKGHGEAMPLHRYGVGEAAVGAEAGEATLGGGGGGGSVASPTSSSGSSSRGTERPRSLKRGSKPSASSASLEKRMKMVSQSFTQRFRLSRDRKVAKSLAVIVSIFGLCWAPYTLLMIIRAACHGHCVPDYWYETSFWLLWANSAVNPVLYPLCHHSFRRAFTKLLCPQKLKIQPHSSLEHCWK
Procedure: as §1
A GTPγS binding assay can be used to investigate antagonist properties of compounds in CHO cells (Chinese Hamster Ovary) transfected with human Histamine H3 receptor (hH3R). Membranes from CHO cells expressing hH3R (10 μg/well) are diluted in GTPγS assay buffer (20 mM Hepes, 10 mM MgCl2, 100 mM NaCl, pH 7.4) and preincubated with saponine (3 μg/ml), GDP (10 μM) and PVT-WGA SPA beads (125 μg/well) (Amersham) for 30 minutes. To determine antagonist activity, (R)-α-methyl histamine (30 nM) is added in 96 well SPA plate with [^35S]GTPγS (0.2 nM) and various concentration of H3R antagonists. The GTPγS binding assay is started with addition of the mixture membrane/saponine/GDP and incubated for 90 minutes at room temperature. The amount of bound [^35S]GTPγS is determined by using the MicroBeta Trilux counter (PerkinElmer). The percentage of [^35S]GTPγS bound in each sample is calculated as a percentage of that bound control sample incubated in absence of H3 antagonist. Duplicate determinations are obtained for each concentration, and the data are analyzed using ExcelFit4 to obtain the IC50.

Chain of human histamine H3 receptors (Q9Y5N1 whole entry, canonical isoform): as the sequence (Q9Y5N1 whole entry) above

SMILES	IC50 [1] [nM]	IC50 [2] [nM]
CN1CCN(c2ccc([C@H]3C[C@@H]3C(=O)N3CCN(C4CCC4)CC3)cc2)C1=O (relative stereo) [Example 16, trans-1-{4-[2-(4-Cyclobutylpiperazine-1-carbonyl)cyclopropyl]phenyl}-3-methylimidazolidin-2-one]	441	
O=C([C@@H]1C[C@H]1c1cccc(N2CCCC2=O)c1)N1CCN(C2CCC2)CC1 (single isomer, unassigned; enantiomer 1) [Example 38, 1-(3-((trans)-2-(4-cyclobutylpiperazine-1-carbonyl)cyclopropyl)phenyl)pyrrolidin-2-one, enantiomer 1]		11.6
O=C([C@H]1C[C@@H]1c1ccccc1)N1CCN(C2CCCCCC2)CC1 (relative stereo) [Example 3, trans-(4-Cycloheptylpiperazin-1-yl)-(2-phenylcyclopropyl)methanone]	4160	
NC(=O)c1cccc([C@@H]2C[C@H]2C(=O)N2CCN(C3CCC3)CC2)c1 (single isomer, unassigned; enantiomer 1) [Example 36, 3-((trans)-2-(4-cyclobutylpiperazine-1-carbonyl)cyclopropyl)benzamide, enantiomer 1]		6.19
NC(=O)c1ccc([C@@H]2C[C@H]2C(=O)N2CCN(C3CCC3)CC2)cc1 (single isomer, unassigned; enantiomer 1) [Example 43, 4-((trans)-2-(4-cyclobutylpiperazine-1-carbonyl)cyclopropyl)benzamide, enantiomer 1]		3.81
O=C([C@@H]1C[C@H]1c1cccc(N2CCCCC2=O)c1)N1CCN(C2CCC2)CC1 (single isomer, unassigned; enantiomer 2) [Example 41, 1-(3-((trans)-2-(4-cyclobutylpiperazine-1-carbonyl)cyclopropyl)phenyl)piperidin-2-one, enantiomer 2]		733
CS(=O)(=O)Nc1ccc([C@H]2C[C@@H]2C(=O)N2CCN(C3CCC3)CC2)cc1 (relative stereo) [Example 18, trans-N-{4-[2-(4-Cyclobutylpiperazine-1-carbonyl)cyclopropyl]phenyl}methane-sulfonamide]	62.5	
NC(=O)c1ccc([C@@H]2C[C@H]2C(=O)N2CCN(C3CCC3)CC2)cc1 (single isomer, unassigned; enantiomer 2) [Example 44, 4-((trans)-2-(4-cyclobutylpiperazine-1-carbonyl)cyclopropyl)benzamide, enantiomer 2]		834
NC(=O)c1cccc([C@@H]2C[C@H]2C(=O)N2CCN(C3CCC3)CC2)c1 (single isomer, unassigned; enantiomer 2) [Example 37, 3-((trans)-2-(4-cyclobutylpiperazine-1-Carbonyl)cyclopropyl)benzamide, enantiomer 2]		> 1050
O=C([C@H]1C[C@@H]1c1ccc(N2CCCC2)cc1)N1CCN(C2CCC2)CC1 (relative stereo) [Example 19, trans-(4-cyclobutylpiperazin-1-yl) {-2-[4-(pyrrolidin-1-yl)phenyl]cyclopropyl}methanone]	351	
O=C([C@@H]1C[C@H]1c1cccc(N2CCCCC2=O)c1)N1CCN(C2CCC2)CC1 (single isomer, unassigned; enantiomer 1) [Example 40, 1-(3-((trans)-2-(4-cyclobutylpiperazine-1-carbonyl)cyclopropyl)phenyl)piperidin-2-one, enantiomer 1]		18.2

Further lines, results first:

IC50 [1] [nM]	IC50 [2] [nM]	SMILES
6.4		O=C([C@H]1C[C@@H]1c1ccccc1)N1CCN(C2CCC2)CC1 (relative stereo) [Example 4, trans-(4-Cyclobutylpiperazin-1-yl)-(2-phenylcyclopropyl)methanone]
88.3		O=C([C@H]1C[C@@H]1c1ccc(C(F)(F)F)nc1)N1CCN(C2CCC2)CC1 (relative stereo) [Example 26, trans-(4-Cyclobutylpiperazin-1-yl)(2-(6-(trifluoromethyl)pyridin-3-yl)cyclopropyl)methanone]
44.7		O=C([C@H]1C[C@@H]1c1ccccc1)N1CCN(C2CC2)CC1 (relative stereo) [Example 5, trans-(4-Cyclopropylpiperazin-1-yl)-(2-phenylcyclopropyl)methanone]
	127	CC(C)N1CCN(C(=O)C2CC2c2cnn(C)c2)CC1 (centres unmarked) [Example 45, (4-isopropylpiperazin-1-yl)(2-(1-methyl-1H-pyrazol-4-yl)cyclopropyl)methanone]
45.3		CC(C)(C)N1CCN(C(=O)[C@H]2C[C@@H]2c2ccccc2)CC1 (relative stereo) [Example 9, trans-(4-tert-Butylpiperazin-1-yl)-(2-phenylcyclopropyl)methanone]
13.3		O=C([C@H]1C[C@@H]1c1ccc(Br)cc1)N1CCN(C2CCC2)CC1 (relative stereo) [Example 13, trans-[2-(4-Bromophenyl)cyclopropyl]-(4-cyclobutylpiperazin-1-yl)methanone]
14		O=C([C@H]1C[C@@H]1c1ccccc1)N1CCN(C2CCCC2)CC1 (relative stereo) [Example 6, trans-(4-Cyclopentylpiperazin-1-yl)-(2-phenylcyclopropyl)methanone]
0.834		N#Cc1cccc([C@@H]2C[C@H]2C(=O)N2CCN(C3CCC3)CC2)c1 (relative stereo) [Example 29, trans-3-[2-(4-cyclobutylpiperazine-1-carbonyl)cyclopropyl]benzonitrile]
105		O=C([C@H]1C[C@@H]1c1ccccc1)N1CCN(C2CCCCC2)CC1 (relative stereo) [Example 2, trans-(4-Cyclohexylpiperazin-1-yl)-(2-phenyl-cyclopropyl)methanone]
1.37		O=C([C@@H]1C[C@H]1c1cccc(Br)c1)N1CCN(C2CCC2)CC1 (relative stereo) [Example 28, trans-[2-(3-Bromophenyl)cyclopropyl]-(4-cyclobutylpiperazin-1-yl)methanone]
7.3		O=C([C@@H]1C[C@H]1c1ccc(F)cc1)N1CCN(C2CCC2)CC1 (relative stereo) [Example 27, trans-(4-Cyclobutylpiperazin-1-yl)-[2-(4-fluorophenyl)cyclopropyl]methanone]
7.56		O=C([C@H]1C[C@@H]1c1ccccc1)N1CCCN(C2CCC2)CC1 (relative stereo) [Example 8, trans-(4-Cyclobutyl-1,4-diazepan-1-yl)-(2-phenylcyclopropyl)methanone]
